The source of these data is PMC6010070, “Antinociceptive potency of a fluorinated cyclopeptide Dmt-c[D-Lys-Phe-p-CF3-Phe-Asp]NH2” (Journal of Enzyme Inhibition and Medicinal Chemistry, 2018).

Like-named read-outs stand apart in the source and are kept apart here. Bridge positions count the residues as written; N and C are the ends. Square brackets hold non-standard residues; d marks the D form. Peptide text beside a SMILES is read from it. Phe(4-CF3) = N[C@@H](Cc1ccc(C(F)(F)F)cc1)C(=O)O; Dmt = Cc1cc(O)cc(C)c1C[C@H](N)C(=O)O

The subject of data set [1] is Male CD-1 mice. Briefly: Hot-plate test after i.c.v. administration. The data set is classed as in vivo. An excerpt: Male CD-1 mice (Harlan, Italy) weighing 25–30 g were used to determine the anti-nociceptive activity of the cyclopeptides in the hot-plate test after i.c.v. injection. Animal studies and research protocols were approved by the Service for Biotechnology and Animal Welfare of the Istituto Superiore di Sanità and authorized by the Italian Ministry of Health, according to Legislative Decree 26/14 (protocol number: 198/2013-B, 14 August 2013), which implemented the European Directive 2010/63/EEC on laboratory animal protection. Animal welfare was routinely checked by veterinarians from the Service for Biotechnology and Animal Welfare.
The hot-plate test was performed as described earlier. The intracerebroventricular (i.c.v.) injections were performed in a volume of 10 µl/animal, in the left brain ventricle of manually immobilized mice with a Hamilton microsyringe (50 µl) connected to a needle (diameter 0.5 mm). Peptides were also administrated in mice intravenously (i.v.) in a volume of 1 ml/kg. All compounds used for i.c.v. and i.v. administration were dissolved in saline. A transparent plastic cylinder (14 cm diameter, 31 cm height) was used to confine the mouse on the heated (55 ± 0.5 °C) surface of the plate. The animals were placed on the hot plate 5 min after the i.c.v. injection of saline (control) or peptides and the latencies to paw licking, rearing and jumping were measured at 5, 10, 20, 30, 45, 60, 90, and 120 min after administration of a peptide. A cut-off time of 240 s was used to avoid tissue injury. The percentage of the maximal possible effect (%MPE) was calculated as: %MPE = (t1 − t0)/(t2 − t0) × 100, where t0: control latency, t1: test latency, and t2: cut-off time. The median antinociceptive dose (ED50) was calculated according to the method of Litchfield and Wilcox[36].
In general terms: Thermal pain tests record how soon the animal reacts.

In data set [2] the test system is kappa-opioid receptor. Also noted: method as in PMID 26005537, PMID 25047937. The note with it: cited from earlier work.
Data set [3] can be described thus: Kinetic solubility assay. The note with it: PBS buffer, pH 7.4. The data set is classed as physicochemical. The procedure:
Kinetic solubility assay was performed using Multiscreen HTS Vacuum Manifold (Merck Millipore, Warsaw, Poland). Compounds for this test were prepared as 10 mM stock solutions in DMSO and diluted in a standard PBS buffer (pH = 7.4), to the final concentrations of 0.5 mM. The solutions were applied into a 96-well filter plate and incubated for 90 min at room temperature, while shaking at 40 g and then filtrated. The concentration of each compound was determined on the basis of the prepared calibration curve using the UV–VIS spectrophotometric method. According to the absorption spectra of the compounds the wavelength used for the measurements was 280 nm for both, C-36 and F-81.

In data set [4] the test system is Male balb/c mice. As to the kind of experiment: Histology, microscopic total damage score of distal colon (prevention model of colitis). It counts as in vivo. The note with it: 1 mg/kg. The procedure:
Distal colon sections from the preventive mouse model of colitis were stapled flat, mucosal side-up, onto cardboard strips and fixed in 10% formalin for 24 h at 4 °C. Samples were dehydrated, embedded in paraffin, sectioned at 5 µm, and mounted onto slides. The sections were then stained with haematoxylin and eosin and Motic AE31 microscope (Ted Pella, Sweden) photographs were taken using a digital imaging system consisting of a digital camera (Moticam 2300, Ted Pella, Sweden) and image analysis software (Motic Images Plus 2.0, Germany).
The microscopic total damage score was assessed using the following parameters: the goblet cell depletion (presence = 1, absence = 0), crypt abscesses (presence = 1, absence = 0), the destruction of mucosal architecture (normal = 1, moderate = 2, extensive = 3), the extent of muscle thickening (normal =1, moderate = 2, extensive = 3), and the presence and degree of cellular infiltration (normal = 1, moderate = 2, transmural = 3).

As for `Cc1cc(O)cc(C)c1C[C@H](N)C(=O)N[C@@H]1CCCCNC(=O)C[C@@H](C(N)=O)NC(=O)[C@H](Cc2ccc(C(F)(F)F)cc2)NC(=O)[C@H](Cc2ccccc2)NC1=O` [Peptide F-81, Dmt-c[D-Lys-Phe-p-CF3-Phe-Asp]NH2] (H-[Dmt][dK]F[Phe(4-CF3)]D-NH2; lactam 2-5 (inferred)), the “Anti-nociceptive effect with co-administered naltrindole (delta antagonist)” value in data set [1] (F-81 10 ng/animal i.c.v., NTL 1 µg/animal) is listed as “did not modify”. Also, the “Anti-nociceptive effect with co-administered norbinaltorphimine (kappa antagonist)” value in data set [1] (F-81 10 ng/animal i.c.v., nor-BNI 5 µg/animal i.c.v.) is on record as “did not modify”. For the same molecule, the “Anti-nociceptive effect with co-administered β-funaltrexamine (mu antagonist)” value in data set [1] (F-81 10 ng/animal i.c.v., β-FNA 1 µg/animal) is given as “blocked”. For the same molecule, in data set [1] (hot-plate test, i.c.v., from the ED50 values), the “Anti-nociceptive potency relative to C-36” value is “approximately threefold”. Besides, the “ED50 (jumping response)” value in data set [1] (hot-plate test, mice, i.c.v.) is on record as 17.27 ng. The kappa-affinity result in data set [2] is on record as “significant kappa-affinity”. The solubility at 90 min in data set [3] (read-out: Solubility Mean) was 345 µM; in data set [3] (read-out: Solubility Mean (mg/ml)) it was 0.27 mg/mL. Further, in data set [4], the Microscopic score result is “significantly improved”.
